Reference: PMC6155776, “Synthesis of Novel Pyrazinamide Derivatives Based on 3-Chloropyrazine-2-carboxamide and Their Antimicrobial Evaluation” (Molecules : A Journal of Synthetic Chemistry and Natural …, 2017)
pIC50: −log10 of the molar value. ≈ marks a conversion by molar mass, not a printed value. Where “and” joins values, the source holds several entries; their conditions need not be identical. Equal values may be shown once. Read-outs that look alike come from different tables or passages of the source.

Tests used:
[1] = system: Mycobacterium smegmatis CCM 4622 (ATCC 607); assay: Mycobacterium smegmatis screening, microdilution broth panel method with resazurin; format: cell-based; conditions: Middlebrook 7H9 broth, 48 h incubation; for MIC: Mycolicibacterium smegmatis, 48 h, read-out: Minimum Inhibitory Concentrations M. smegmatis
[2] = system: M. tbc H37Rv; conditions: cited from earlier work
[3] = system: Mycobacterium tuberculosis H37Rv; assay: Antimycobacterial screening, microdilution broth panel method with resazurin (Alamar blue); format: cell-based; conditions: for MIC: read-out: Minimum Inhibitory Concentrations M. tbc H37Rv
[4] = system: Enterococcus faecalis J 14365/08; assay: Antibacterial screening, microdilution broth panel method; format: cell-based; conditions: J14365/08; Enterococcus faecalis J 14365/08, pH 7.0; read-out: Minimum Inhibitory Concentrations Bacteria, EF
[5] = Experimental lipophilicity logk by RP-HPLC; conditions: methanol 70% / water 30%, C18
Procedure: These values were compared with logk, an experimentally measured lipophilicity parameter derived from retention times acquired by RP-HPLC.
Experimental lipophilicity parameter logk values were determined using HPLC method. […] The separation process was handled by Agilent ChemStation, version B.04.02 extended with spectral module (Agilent Technologies Inc.). A mixture of methanol (HPLC grade, 70%) and water (HPLC-Milli-Q Grade, 30%) was used as mobile phase. The total flow rate of the column was set to 1.0 mL/min, injection 20 μL, column temperature 30 °C. 210 nm as detection wavelength and 270 nm as monitor wavelength were chosen. A methanolic solution of KI was used for the determination of dead time (TD). Retention times (TR) of synthesized compounds were measured in minutes. Capacity factors k were calculated according to formula k = (TR − TD)/TD, where TR is the retention time of the solute and TD denotes the dead time obtained via an unretained analyte (KI). Logk, which was calculated from the capacity factor k, is used as the lipophilicity index.

[6] = system: eight common bacterial strains; assay: Antibacterial screening, microdilution broth panel method; format: cell-based; conditions: all tested bacterial strains, pH 7.0; read-out: Minimum Inhibitory Concentrations Bacteria
[7] = system: M. kansasii My 235/80; assay: Antimycobacterial screening, microdilution broth panel method with resazurin (Alamar blue); format: cell-based; conditions: Mycobacterium kansasii, MY235/80; pH 5.6, 5–7 days incubation
[8] = system: HepG2 cell line; conditions: read-out: IC50 (cytotoxicity); HepG2, 24 h incubation
[9] = in vitro; conditions: human, IC50 (cytotoxicity), HepG2, 24 h incubation
[10] = system: Staphylococcus aureus CCM 4516/08; assay: Antibacterial screening, microdilution broth panel method; format: cell-based
[11] = Mycobacterium tuberculosis, H37RV, 336 h, pH 5.6, Sula's broth pH 5.6, 14 days incubation
[12] = Mycobacterium tuberculosis, H37RV, 336 h, pH 5.6, Sula's broth pH 5.6, 14 days incubation, n.a. = not active

Row | SMILES | MIC [1] | MIC [3, 11] | Logk [5] | MIC [6] | further results
1 | O=C(O)c1cn(C2CC2)c2cc(N3CCNCC3)c(F)cc2c1=O [CPX, ciprofloxacin, reference compound] | 0.1 µg/mL (≈ 0.302 µM) |  |  |  | Minimum Inhibitory Concentrations M. smegmatis [1]: 0.10 to 0.20 µg/mL
2 | Cc1ccc(CNc2nc(C#N)cnc2C#N)cc1 [Compound 8-B] |  |  |  |  | MIC against M. tbc H37Rv ([2]; series A and B): 6.25 µg/mL and 25 µM
3 | N#Cc1cnc(C#N)c(NCc2ccc(N)cc2)n1 [Compound 9-B] |  |  |  |  | MIC against M. tbc H37Rv ([2]; series A and B): 25 µg/mL and 100 µM
4 | COc1ccc(CNc2nccnc2C(N)=O)c(OC)c1 [Compound 14, 3-[(2,4-Dimethoxybenzyl)amino]pyrazine-2-carboxamide] | ≥ 500 µg/mL | > 100 µg/mL | 0.274 |  | MIC [4]: 62.5 µM (≈ 18 µg/mL)
5 | N#Cc1cnc(C(N)=O)c(NCc2ccc(N)cc2)n1 [Compound 9-A] |  |  |  |  | MIC against M. tbc H37Rv ([2]; series A and B): 12.5 µg/mL and 47 µM
6 | Cc1ccccc1CNc1nccnc1C(N)=O [Compound 6, 3-[(2-Methylbenzyl)amino]pyrazine-2-carboxamide] | ≥ 500 µg/mL | > 100 µg/mL | 0.320 | > 500 µM | 
7 | NC(=O)c1nccnc1NCc1ccc(Cl)cc1 [Compound 5, 3-[(4-Chlorobenzyl)amino]pyrazine-2-carboxamide] | 250 µg/mL (≈ 952 µM) | > 100 µg/mL | 0.373 |  | 
8 | NC(=O)c1nccnc1NCc1ccccc1Cl [Compound 10, 3-[(2-Chlorobenzyl)amino]pyrazine-2-carboxamide] | ≥ 500 µg/mL | > 100 µg/mL | 0.441 | > 500 µM | 
9 | NNC(=O)c1ccncc1 [INH, isoniazid, reference compound] |  | 0.39 µg/mL |  |  | MIC [3, 12]: 3 µM; MIC [7]: 1.56 µg/mL to 12.5 µg/mL and 11 µM to 91 µM; Minimum Inhibitory Concentrations M. smegmatis [1]: 7.81 to 15.63 µg/mL; Minimum Inhibitory Concentrations M. smegmatis ([1]; listed as isoniazid): 15.63 µg/mL
10 | NC(=O)c1cnccn1 [PZA, pyrazinamide] | ≥ 500 µg/mL | 12.5 µg/mL |  |  | MIC [3, 12]: 102 µM
11 | N#Cc1cnc(C(N)=O)c(NCc2cccc(C(F)(F)F)c2)n1 [Compound 4-A] |  |  |  |  | MIC against M. tbc H37Rv ([2]; series A and B): 25 µg/mL and 78 µM
12 | Cc1ccc(CNc2nc(C#N)c(C#N)nc2C)cc1 [Compound 8-C] |  |  |  |  | MIC against M. tbc H37Rv ([2]; series C): 25 µg/mL and 95 µM
13 | NC(=O)c1nccnc1NCc1ccccc1 [Compound 1, 3-(Benzylamino)pyrazine-2-carboxamide] | ≥ 500 µg/mL | ≥ 100 µg/mL | 0.215 | > 500 µM | 
14 | Cc1ccc(CNc2nccnc2C(N)=O)cc1 [Compound 8, 3-[(4-Methylbenzyl)amino]pyrazine-2-carboxamide] | ≥ 500 µg/mL | 1.56 to 12.5 µg/mL | 0.441 | > 500 µM | MIC [3, 12]: 6 to 42 µM; Minimum Inhibitory Concentrations M. tbc H37Rv ([3]; Sula's broth pH 5.6, 14 days incubation): 1.56 µg/mL; MIC ([3]; Sula's broth pH 5.6, 14 days incubation, n.a. = not active): 6 µM; pIC50 [8]: < 3.60; pIC50 [9]: ≤ 3.60
15 | NC(=O)c1nccnc1NCc1ccc(C(F)(F)F)cc1 [Compound 12, 3-[(4-Trifluoromethylbenzyl)amino]pyrazine-2-carboxamide] | ≥ 500 µg/mL |  | 0.502 |  | MIC [4]: 125 µM (≈ 37 µg/mL); pIC50 [9]: 4.24
16 | N#Cc1cnc(C#N)c(NCc2ccccc2)n1 [Compound 1-B] |  |  |  |  | MIC against M. tbc H37Rv ([2]; series A and B): 12.5 µg/mL (≈ 53.1 µM)
17 | Cc1nc(C#N)c(C#N)nc1NCc1ccc(N)cc1 [Compound 9-C] |  |  |  |  | MIC against M. tbc H37Rv ([2]; series C): 25 µg/mL and 95 µM
18 | CO[C@H]1/C=C/O[C@@]2(C)Oc3c(C)c(O)c4c(O)c(c(/C=N/N5CCN(C)CC5)c(O)c4c3C2=O)NC(=O)/C(C)=C\C=C\[C@H](C)[C@H](O)[C@@H](C)[C@@H](O)[C@@H](C)[C@H](OC(C)=O)[C@@H]1C [RFM, rifampicin, reference compound] | 0.39 µg/mL (≈ 0.474 µM) |  |  |  | Minimum Inhibitory Concentrations M. smegmatis [1]: 0.78 to 1.56 µg/mL
19 | NC(=O)c1nccnc1NCc1ccccc1C(F)(F)F [Compound 13, 3-[(2-Trifluoromethylbenzyl)amino]pyrazine-2-carboxamide] | ≥ 500 µg/mL | > 100 µg/mL | 0.495 |  | MIC [4]: 125 µM (≈ 37 µg/mL)
20 | NC(=O)c1nccnc1NCc1cccc(Cl)c1 [Compound 2, 3-[(3-Chlorobenzyl)amino]pyrazine-2-carboxamide] | ≥ 500 µg/mL | > 100 µg/mL | 0.373 | > 500 µM | 
21 | NC(=O)c1nccnc1NCc1cccc([N+](=O)[O-])c1 [Compound 15, 3-[(3-Nitrobenzyl)amino]pyrazine-2-carboxamide] | ≥ 500 µg/mL | > 100 µg/mL | 0.101 | > 500 µM | 
22 | COc1ccc(CNc2nccnc2C(N)=O)cc1 [Compound 7, 3-[(4-Methoxybenzyl)amino]pyrazine-2-carboxamide] | ≥ 500 µg/mL | > 100 µg/mL | 0.194 | > 500 µM | 
23 | NC(=O)c1nccnc1NCc1cccc(C(F)(F)F)c1 [Compound 4, 3-[(3-Trifluoromethylbenzyl)amino]pyrazine-2-carboxamide] | 250 µg/mL (≈ 844 µM) |  | 0.403 |  | MIC [7]: 25 µg/mL and 84 µM; Minimum Inhibitory Concentrations Bacteria, SA ([10]; Staphylococcus aureus CCM 4516/08, pH 7.0): 31.25 SA ^a µM; MIC ([10]; Staphylococcus aureus, CCM4516, pH 7, Staphylococcus aureus CCM 4516/08, pH 7.0, read-out: Minimum Inhibitory Concentrations Bacteria, SA): 31.2 µM (≈ 9.26 µg/mL); pIC50 [9]: 4.12
24 | NC(=O)c1nccnc1NCc1ccccc1F [Compound 11, 3-[(2-Fluorobenzyl)amino]pyrazine-2-carboxamide] | ≥ 500 µg/mL | > 100 µg/mL | 0.248 |  | MIC [4]: 125 µM (≈ 30.8 µg/mL)
25 | NC(=O)c1nccnc1NCc1ccc(N)cc1 [Compound 9, 3-[(4-Aminobenzyl)amino]pyrazine-2-carboxamide] | 250 µg/mL (≈ 1030 µM) |  | −0.313 | > 500 µM | pIC50 [9]: < 3.12
26 | Cc1nc(C#N)c(C#N)nc1NCc1ccccc1 [Compound 1-C] |  |  |  |  | MIC against M. tbc H37Rv ([2]; series C): 25 µg/mL and 100 µM
27 | Cc1ccc(CNc2nc(C#N)cnc2C(N)=O)cc1 [Compound 8-A] |  |  |  |  | MIC against M. tbc H37Rv ([2]; series A and B): 12.5 µg/mL and 47 µM
28 | NC(=O)c1nccnc1NCc1ccc(Cl)c(Cl)c1 [Compound 3, 3-[(3,4-Dichlorobenzyl)amino]pyrazine-2-carboxamide] | ≥ 500 µg/mL | > 100 µg/mL | 0.470 | > 500 µM | 
29 | Cc1nc(C#N)c(C#N)nc1NCc1cccc(C(F)(F)F)c1 [Compound 4-C] |  |  |  |  | MIC against M. tbc H37Rv ([2]; series C): 12.5 µg/mL and 39 µM
